Values quoted from earlier work in article PMC12833850, “Hybridization Approach Applied to Umbelliferon and Vanilloids toward New Inhibitors of Carbonic Anhydrases IX and XII with In Vitro Antiproliferative and Anti-inflammatory Activities” (Journal of Medicinal Chemistry, 2026).

Molecular target: T1, hCA IX (Homo sapiens, UniProt Q16790)
T1 construct: made in house
Settings: data already reported; ref Maresca and Supuran, 2010

- Ki: 198 nM
SMILES: O=c1ccc2cc(O)ccc2o1 [Compound 2, 6-hydroxycoumarin]
